Data reported in US7786152B2, “Compound” (priority 2002, dated 2010).

Biological target: T1, Human 11βHSD1 (Homo sapiens, UniProt P28845)
T1 construct: the enzyme source, native hepatic enzyme compared to recombinant enzyme; tissue XenoTech H0610/Lot 0210078; host or cells: human hepatic microsomes
Test: 11β HSD1 cortisol radioimmunoassay (RIA) with human hepatic microsomes
Format: biochemical
Conditions: read-out: % inhibition of Human 11βHSD1 @ 10 μM
Protocol: Biological Assay Development Using Human 11β-Hydroxysteroid Dehydrogenase Type 1. Standard Operating Procedure for the 11β-Hydroxysteroid Dehydrogenase Type 1 Cortisol Radioimmunoassay. 11β HSD1 Cortisol RIA
Enzyme assay buffer: 30 mM Tris-HCL, pH 7.2 containing 1 mM EDTA
Antibody binding buffer: 50 mM Tris-HCL, pH 8, containing 0.1 M NaCl and 0.1% gelatin
Dilute into assay buffer 1 in 25. Also dilute neat DMSO 1 in 25 into assay buffer for controls.
Dilute this 1 in 50 into assay buffer.
Prepare NADPH as a 1.8 mg/ml solution in assay buffer.
Mix these 3 solutions 1:1:1 to make a solution of sufficient volume for 25 μl additions to each sample. Add 0.5 μCi tritiated cortisone per 25 μl and mix the solution well.
Microsome preparation: Dilute stock 20 mg/ml solution 1 in 100 with assay buffer.
Dextran coated charcoal preparation: Make a 20 mg/ml solution in antibody binding buffer and chill on ice.
Enzyme assay: To a u-bottom polypropylene 96 well plate add:
25 μl compound dilution or diluted DMSO to controls, NSB's and blanks
10 μl 1 mM GA in DMSO (enzyme stop solution) to blanks
25 μl substrate mixture to all samples
50 μl diluted microsomes to all samples
Incubate plate for 30 min at 37° C. shaking
Add 10 μl enzyme stop solution to all wells except the blanks
Add 100 μl antibody solution to all wells except the NSB's, add antibody binding buffer to these wells
Incubate at 37° C. for 1 h
Chill plate on ice for 15 min
Add 50 μl/well charcoal solution and mix with an 8-channel pipette (4-5 aspirations)
Centrifuge at 4° C., 2000×g for 15 min
Transfer 100 μl supernatant into an Optiplate, also add 25 μl substrate mixture to 2 empty wells to indicate counting efficiency
Add 200 μl Microscint-40 to all wells and count on a Topcount
The 11β HSD1 enzyme assay was carried out following the standard operating procedure described above in u-bottom polypropylene 96 well plates or 1.5 ml Eppendorf tubes as indicated for each experiment. Subsequent to stopping the enzyme reaction, 100 μl antibody prepared in buffer 3 unless otherwise indicated was added to test samples and 100 μl buffer 3 was added to the NSB samples. The samples were incubated for 1 hour at 37° C. and the chilled on ice for 15 mins. Dextran coated charcoal (50 μl/sample) prepared to the indicated concentration in buffer 3 was added and the samples were mixed (vortex for tubes and aspiration 5 times with an 8-channel pipette for 96 well plates) and chilled for a further 10 min. The samples were centrifuged at 2000×g for 15 min at 4° C. to pellet the charcoal. Aliquots of the supernatant (100 μl) were transferred to an Optiplate and counted on the Topcount in 150-200 μl Microscint 40. In some experiments, aliquots of supernatant were transferred to scintillation vials and counted on the Tricarb LSC in 5 ml Ultima Gold scintillant.
Substrate saturation was examined. The enzyme assay was carried out exactly described in the methods section, in Buffer 3 with 10 μg/well microsomal protein and with [cold cortisone] as indicated. [3H]-cortisone was 0.5 μCi/sample throughout. The reaction was stopped after 30 min by the addition of 10 μl stop solution. The RIA was carried out exactly as indicated in the methods section.
It is reported that DMSO can both increase and reduce microsomal enzyme activity, depending on the concentration, presumably due to effects on the microsomal membranes.

T1 sequence (P28845 whole entry): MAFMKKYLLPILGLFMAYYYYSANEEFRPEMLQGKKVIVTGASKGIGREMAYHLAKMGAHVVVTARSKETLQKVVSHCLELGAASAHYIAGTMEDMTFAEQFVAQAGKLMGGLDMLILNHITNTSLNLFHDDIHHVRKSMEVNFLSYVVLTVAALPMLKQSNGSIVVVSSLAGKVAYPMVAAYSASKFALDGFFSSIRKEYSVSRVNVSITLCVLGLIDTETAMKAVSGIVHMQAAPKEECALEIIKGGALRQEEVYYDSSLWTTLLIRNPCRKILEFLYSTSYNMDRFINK

SMILES | inhibition at 10 µM [%]
CCCc1ccc(S(=O)(=O)Nc2ccc3sc(C)nc3c2)cc1 [compound 421] | 42
Cc1nc2cc(NS(=O)(=O)c3ccc(Br)cc3C)ccc2s1 [compound 523] | 61
COc1ccc(Cl)cc1S(=O)(=O)Nc1ccc2sc(C)nc2c1 [compound 582] | 34
Cc1nc2cc(NS(=O)(=O)c3ccc(C(C)(C)C)cc3)ccc2s1 [compound 709] | 49
Cc1nc2cc(NS(=O)(=O)c3ccc(Br)cc3)ccc2s1 [compound 519] | 48
COc1cc(C)ccc1S(=O)(=O)Nc1ccc2sc(C)nc2c1 [compound 584] | 20
Cc1nc2cc(NS(=O)(=O)c3cccc(Cl)c3C)ccc2s1 [compound 413] | 29
CCSc1nc2ccc(NS(=O)(=O)c3cccc(Cl)c3C)cc2s1 [compound 751] | 22
Cc1nc2cc(NS(=O)(=O)c3c(Cl)cc(Cl)cc3Cl)ccc2s1 [compound 522] | 47
CC(=O)c1ccccc1S(=O)(=O)Nc1ccc2sc(C)nc2c1 [compound 701] | 41
Cc1nc2cc(NS(=O)(=O)c3cccc4c(N(C)C)cccc34)ccc2s1 [compound 554] | 53
Cc1nc2cc(NS(=O)(=O)c3cccc4cccnc34)ccc2s1 [compound 552] | 45
COc1ccc(S(=O)(=O)Nc2ccc3sc(C)nc3c2)cc1 [compound 424] | 47
Cc1nc2cc(NS(=O)(=O)c3c(C)cccc3Cl)ccc2s1 [compound 425] | 41
Cc1nc2cc(NS(=O)(=O)c3c(C)c(C)c(C)c(C)c3C)ccc2s1 [compound 710] | 35
Cc1nc2cc(NS(=O)(=O)c3c(C(C)C)cc(C(C)C)cc3C(C)C)ccc2s1 [compound 703] | 37
Cc1nc2cc(NS(=O)(=O)c3ccc(Oc4ccccc4)cc3)ccc2s1 [compound 585] | 58
Cc1nc2cc(NS(=O)(=O)c3cccc4ccccc34)ccc2s1 [compound 553] | 48
Cc1nc2cc(NS(=O)(=O)c3ccccc3C#N)ccc2s1 [compound 583] | 28
Cc1nc2cc(NS(=O)(=O)c3ccc4c(c3)CN(C(=O)C(F)(F)F)CC4)ccc2s1 [compound 581] | 29
CCN(c1ccc2sc(C)nc2c1)S(=O)(=O)c1cccc(Cl)c1C [compound 470] | 54
COC(=O)c1ccccc1S(=O)(=O)Nc1ccc2sc(C)nc2c1 [compound 705] | 28
Cc1nc2cc(N(C)S(=O)(=O)c3cccc(Cl)c3C)ccc2s1 [compound 469] | 66
COc1c(C)c(C)c(S(=O)(=O)Nc2ccc3sc(C)nc3c2)c(C)c1C [compound 708] | 21
Cc1nc2cc(NS(=O)(=O)c3ccc(C(C)C)cc3)ccc2s1 [compound 704] | 44
Cc1nc2cc(NS(=O)(=O)c3ccc(-c4ccccc4)cc3)ccc2s1 [compound 521] | 60
Cc1nc2cc(NS(=O)(=O)c3ccc(Cl)cc3Cl)ccc2s1 [compound 412] | 36
Cc1nc2cc(NS(=O)(=O)c3cc(Cl)ccc3Cl)ccc2s1 [compound 580] | 30
